According to US11504428B2, “Photosensitizer and derivatives and application thereof” (DALIAN UNIVERSITY OF TECHNOLOGY, priority 2017, dated 2022):

Experiments:
[1] = Singlet oxygen production, DPBF absorption attenuation under 660 nm light, methylene blue as reference; type: physicochemical; conditions: 5 μM in methanol
Experimental: Compounds 1-1 and 1-2 synthesized in the embodiment 1 are added to 3 mL methanol solvent with a final concentration of 5 μM. Next, 1, 3-diphenyl isobenzofuran (DPBF) is added, and adjusting the absorbance of DPBF in the solution to about 1.0. Then the ultraviolet absorption curve is measured. According to the changes of the absorbance value of DPBF at 411 nm after each irradiation (660 nm light source), the correlation curve between absorbance and time is drawn. With methylene blue (MB) as reference, the singlet oxygen yield is calculated using the following formula.
(§1) Compounds 1-1 and 1-2 synthesized in the above embodiment 2 are added to 3 mL methanol solvent with a final concentration of 5 μM. Then, the 1,3-diphenyl isobenzofuran (DPBF) is added, and the absorbance of DPBF in the solution is adjusted to about 1.0. Then the ultraviolet absorption curve is measured after each 660 nm red light irradiation. According to the changes of the absorbance value of DPBF at 411 nm, the correlation curve between absorbance and time is drawn. With methylene blue (MB) as reference, the following formula is used to calculate the oxygen yield of its singlet state.
[formula] […] The instruments used are AgIIlent 8453 UV spectrophotometer, and the light source is 300 W xenon lamp.
as §1, with “1-1-IMC” for “1-1”, “2-1-IMC” for “1-2”
as §1, with “1-1-Biotin” for “1-1 and 1-2”

[2] = UV absorption and fluorescence emission spectra in methanol; type: physicochemical; conditions: 5 μM in methanol
Experimental: (§2) Compounds 1-1 and 1-2 synthesized from embodiment 1 above are added to 3 mL methanol solvent with a final concentration of 5 μM and their UV absorption spectra and fluorescence emission spectra are measured. […] The instruments used are AgIIlent 8453 UV spectrophotometer and AgIIlent Cary EclIIpse fluorescence spectrophotometer.
as §2, with “Benzophenoselenazine photosensitizer 2-1, 2-2,” for “Compounds 1-1 and 1-2”, “2” for “1”, “μM,” for “μM”
Compounds 1-1-IMC and 2-1-IMC synthesized from embodiment 3 above are added to 3 mL methanol solvent with a final concentration of 5 μM. The UV absorption spectra and fluorescence emission spectra are then measured. […] The instruments used are AgIIlent 8453 UV spectrophotometer and AgIIlent Cary EclIIpse fluorescence spectrophotometer.
Compounds 1-1-Biotin synthesized from embodiment 4 above is added to 3 mL methanol solvent with a final concentration of 5 μM, and then the UV absorption spectra and fluorescence emission spectra are detected. […] The instruments used are AgIIlent 8453 UV spectrophotometer and AgIIlent Cary EclIIpse fluorescence spectrophotometer.

COS-7 cells = test: In vitro cell selectivity test, confocal fluorescence uptake in co-cultured cells, COS-7; type: cell-based, African green monkey; conditions: 1 μM, 1 h, COS-7 co-cultured with HepG2, excitation 635 nm
Experimental: (§3) Firstly, HepG2 cells and COS-7 cells are cultured together in a cell culture dish for 24 h, and then 1 μM of 1-1-biotin or 1-1 is added and further incubation for 1 h. After staining, the cells are washed using serum-free medium for three times. Then, 2 mL fresh medium is added, and corresponding fluorescence observation is performed using the laser confocal scanning microscope. The excitation wavelength is 635 nm and the fluorescence receiving channel is 655 nm-755 nm.

[3] = test system: COS-7 (African green monkey kidney cells); test: In vitro anticancer test (MTT cell viability), dark and 660 nm light, COS-7; type: cell-based
HepG2 cells = test: In vitro cell selectivity test, confocal fluorescence uptake in co-cultured cells, HepG2; type: cell-based; conditions: 1 μM, 1 h
Experimental: as §3

HepG2 (hepatoma cells) = test: In vitro anticancer test (MTT cell viability), dark and 660 nm light, HepG2; type: cell-based
Experimental: MCF-7 (human breast) cancer cells or HepG2 (liver cancer cell) are incubated on the cell culture plate in DMEM medium supplemented with 10% FBS and 1% penicillin-streptomycin at 37° C. in a humidified, 5% CO2 atmosphere. Then, the MCF-7 cells are seeded in 96 well cell culture plate at density of 5,000 cells per well. After 24 h incubation, 100 μL of 1-1-Biotin at different concentrations (5, 2.5, 1.25, 0.625, 0.32, 0.16, 0.08, 0.04, 0.02 μM) are added into the each well, and cultured for 1 h. Then, the cell medium is replaced with 200 μL fresh medium. For the phototoxicity test, the 96-well plate is irradiated with 660 nm light source for 10 min and then cultured in the above environment for 12 hours. No light irradiation is used as control. Then 20 μL MTT solution with a concentration of 5 mg/mL is added into each well and incubated in the incubator for another 4 hours. The culture medium is then removed and 200 μL DMSO is added to each well, and the plate is gently shaken for 5 min at room temperature. Finally, the absorbance at 490 nm is measured with a Bio-Rad microplate reader and the cell viability is calculated by the following equation: Cell Viability (%)=[Σ(Ai/Ācontrol×100)]/n
Ai is the absorbance of the ith group of data (I=1, 2 . . . , n), Ācontrol is the average absorbance of the control hole of the drug, and the parallel experiment is more than 3 times.

Row | Compound | singlet oxygen yield [1] | maximum absorption wavelength [2] | maximum emission wavelength [2] | cell uptake (red fluorescence) (COS-7 cells) | phototoxicity (cytotoxicity) ([3]; COS-7, 10 minutes irradiation with 660 nm LED light source) | dark toxicity (cell survival rate) ([3]; COS-7, no light irradiation) | cell uptake / targeting (red fluorescence) (HepG2 cells; HepG2 co-cultured with COS-7, excitation 635 nm) | killing effect on biotin receptor overexpressing HepG2 cells relative to COS-7 cells (HepG2 (hepatoma cells); 660 nm light, HepG2 vs COS-7 with low biotin receptor expression) | phototoxicity (cell killing) (HepG2 (hepatoma cells); HepG2, 10 minutes irradiation with 660 nm LED light source, MTT) | dark toxicity (cell survival rate) (HepG2 (hepatoma cells); HepG2, no light irradiation, MTT) | selectivity of uptake for HepG2 over COS-7 cells (HepG2 cells; co-culture of HepG2 and COS-7)
1 | CCN(CC)c1ccc2nc3c4ccccc4/c(=N\CCCCCCN)cc-3[se]c2c1 [2-1] | 0.78 | 661 nm | 702 nm | – | – | – | – | – | – | – | –
2 | CCN(CC)c1ccc2nc3c4ccccc4/c(=N\CCCCCCNC(=O)CCCCC4SC[C@@H]5NC(=O)N[C@H]45)cc-3sc2c1 (some centres unmarked) [1-1-Biotin] | 0.04 | 652 nm | 681 nm | very limited | only limited cytotoxicity | low dark toxicity | can specifically target HepG2 cells | significantly higher | significant HepG2 cells arr killed | low dark toxicity | –
3 | CCN(CC)c1ccc2nc3c4ccccc4/c(=N\CCCCCCNC(=O)Cc4c(C)n(C(=O)c5ccc(Cl)cc5)c5ccc(OC)cc45)cc-3sc2c1 [1-1-IMC] | 0.04 | 654 nm | 694 nm | – | – | – | – | – | – | – | –
4 | CCN(CC)c1ccc2nc3c4ccccc4/c(=N\CCCCCC(=O)O)cc-3sc2c1 [1-2] | 0.04 | 655 nm | 694 nm | – | – | – | – | – | – | – | –
5 | CCN(CC)c1ccc2nc3c4ccccc4/c(=N\CCCCCCNC(=O)Cc4c(C)n(C(=O)c5ccc(Cl)cc5)c5ccc(OC)cc45)cc-3[se]c2c1 [2-1-IMC] | 0.82 | 662 nm | 703 nm | – | – | – | – | – | – | – | –
6 | CCN(CC)c1ccc2nc3c4ccccc4/c(=N\CCCCCCN)cc-3sc2c1 [1-1] | 0.04 | 655 nm | 694 nm | – | – | – | – | – | – | – | does not have such selectivity
7 | CCN(CC)c1ccc2nc3c4ccccc4/c(=N\CCCCCC(=O)O)cc-3[se]c2c1 [2-2] | 0.73 | 661 nm | 702 nm | – | – | – | – | – | – | – | –
